Data on one compound can be found in paper PMC11984586, “A novel spider toxin as a selective antagonist of the Kv1 subfamily of voltage-gated potassium channels through gating modulation” (The Journal of Biological Chemistry, 2025).

Each structure is given as a SMILES string. Bridge positions count the residues as written; N and C are the ends. Peptide text beside a SMILES is read from it.

Assay [1] relates to Kv1.1/Y256A. Put plainly: Whole-cell patch clamp, Tyr-to-Ala mutant homologous to Kv1.3 Y339. The assay is classed as cell-based, human. The note with it: 10 μM MrVIII, +30 mV, 500 ms, holding −80 mV, mean ± SD, n = 4–6. From the text: (§1) Building on the identification of key amino acid residues in Kv1.3 channel that interact with MrVIII through alanine-scanning mutagenesis, we extended our analysis to explore these residues across other Kv1 subfamily channels. […] However, MrVIII retained substantial inhibitory potency on Kv1.2/Y266A mutant, albeit without fully blocking the channel current. […] The profound reduction in MrVIII's effect across homologous mutants supports the idea that it binds to a conserved region.
(§2) The cDNA of hKv1.1, hKv1.2, hKv1.3, rKv1.4, hKv1.5, mKv1.6, and hKv1.7 were subcloned into mammalian expression vectors pcDNA3.1 or pCMV-blank vectors, as well as other plasmids described previously ([35]). Channel mutants were generated by site-directed mutations. Briefly, the parental channel plasmid was amplified using a pair of oppositely directed primers harboring the designed mutation site, with KOD Fx (TOYOBO Co, Ltd). The resulting PCR mix was treated with FastDigest DpnI (Thermo Fisher Scientific) to remove the methylated template. Ten microliters of the digested product was then used to transform 100 μl E. coli DH5α competent cells. […]
(§3) CHO-K1 cells were selected for expressing Kv channels due to their lack of endogenous Kv channels, while HEK293 or ND7/23 cells were used for Nav and Cav channel expression. […] After 4 to 6 h transfection, cells were seeded onto poly-lysine–coated coverslips, and 24 to 36 h later, transfected cells were ready for patch-clamp analysis. […]
(§4) For Kv current recordings, the bath solution contained (in mM) the following: 140 NaCl, 5 KCl, 1 MgCl2, 2 CaCl2, 10 glucose, and 10 Hepes (pH 7.3, adjusted with NaOH), and the pipette solution contained (in mM) the following: 140 KCl, 2.5 MgCl2, 11 EGTA, and 10 Hepes (pH 7.3, adjusted with KOH). […] Whole cell conductance (G) at each depolarizing voltage (V) was determined using the equation: G = I/(V−Vrev), where I is the current amplitude, and Vrev is the reversal potential. […] The steady-state fast inactivation of Kv1.3 was measured using a two-pulses protocol. […]
Background: Patch clamp records ionic current or voltage across a cell membrane.

Assay [2] deals with Kv1.5/Y368A. The assay is described as above. Conditions: 10 μM MrVIII, +30 mV, 500 ms, holding −80 mV, mean ± SD, n = 4–6. The class given is cell-based, human.
Text: as §1, §2, §3, §4

The subject of assay [3] is Kv1.7/Y253A. The description is as above. The class given is cell-based, human. The note with it: 10 μM MrVIII, +30 mV, 500 ms, holding −80 mV, mean ± SD, n = 4–6.
Text: as §1, §2, §3, §4

For assay [4], the target named is T1, Kv1.1/QM (Kv1.1/E283Q_T286M) (Homo sapiens, UniProt Q09470, E283Q/T286M).
T1 construct: expressed in transfected cells; host or cells: CHO-K1
Description: Whole-cell patch clamp, Kv1.1 double mutant. The class given is cell-based. The note with it: +30 mV, mean ± SD, n = 3–5, read-out: IC50, Kv1.1/QM current (full inhibition).
Text: In contrast, differences at positions 347, 355, and 358 between Kv1.3 and Kv1.1 prompted further analysis. To explore whether these discrepancies influence peptide-mediated inhibition, we substituted these residues in Kv1.3 with their homologous counterparts in Kv1.1 and assessed the MrVIII's inhibitory efficacy on these single-point mutants. […] To further investigate this, we introduced double adjacent mutations around Q355 and M358 in Kv1.3 to explore potential synergistic effects on MrVIII's inhibitory activity. […]
as §3
For Kv current recordings, the bath solution contained (in mM) the following: 140 NaCl, 5 KCl, 1 MgCl2, 2 CaCl2, 10 glucose, and 10 Hepes (pH 7.3, adjusted with NaOH), and the pipette solution contained (in mM) the following: 140 KCl, 2.5 MgCl2, 11 EGTA, and 10 Hepes (pH 7.3, adjusted with KOH). […] Whole cell conductance (G) at each depolarizing voltage (V) was determined using the equation: G = I/(V−Vrev), where I is the current amplitude, and Vrev is the reversal potential. […]

The test system of assay [5] is Kv1.4/Y416A. Description: Whole-cell patch clamp, Tyr-to-Ala mutant homologous to Kv1.3 Y339. The class given is cell-based, rat. Conditions: 10 μM MrVIII, +30 mV, 500 ms, holding −80 mV, mean ± SD, n = 4–6.
Text: as §1
The cDNA of hKv1.1, hKv1.2, hKv1.3, rKv1.4, hKv1.5, mKv1.6, and hKv1.7 were subcloned into mammalian expression vectors pcDNA3.1 or pCMV-blank vectors, as well as other plasmids described previously ([35]). Channel mutants were generated by site-directed mutations. Briefly, the parental channel plasmid was amplified using a pair of oppositely directed primers harboring the designed mutation site, with KOD Fx (TOYOBO Co, Ltd). The resulting PCR mix was treated with FastDigest DpnI (Thermo Fisher Scientific) to remove the methylated template. […]
as §3

T1 sequence (Q09470 whole entry E283Q/T286M): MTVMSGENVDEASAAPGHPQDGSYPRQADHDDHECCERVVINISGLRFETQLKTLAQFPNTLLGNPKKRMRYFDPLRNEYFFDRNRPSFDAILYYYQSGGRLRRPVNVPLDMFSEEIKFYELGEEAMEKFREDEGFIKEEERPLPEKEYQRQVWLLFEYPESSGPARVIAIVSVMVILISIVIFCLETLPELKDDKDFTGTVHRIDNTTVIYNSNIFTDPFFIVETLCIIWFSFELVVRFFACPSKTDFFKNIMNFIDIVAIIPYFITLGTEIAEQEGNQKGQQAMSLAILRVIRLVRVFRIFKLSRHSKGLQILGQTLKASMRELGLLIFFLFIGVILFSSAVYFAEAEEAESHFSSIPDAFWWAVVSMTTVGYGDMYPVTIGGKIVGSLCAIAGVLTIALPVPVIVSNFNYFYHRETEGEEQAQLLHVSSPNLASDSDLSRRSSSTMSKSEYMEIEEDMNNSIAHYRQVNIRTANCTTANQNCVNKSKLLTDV

For `CC[C@H](C)[C@@H]1NC(=O)[C@H](Cc2ccc(O)cc2)NC(=O)[C@H](CCC(N)=O)NC(=O)[C@@H]2CCCN2C(=O)[C@@H]2CSSC[C@H](NC(=O)[C@H](C)NC(=O)[C@H](CO)NC(=O)[C@H](CCC(=O)O)NC(=O)[C@H](CCC(=O)O)NC(=O)[C@@H](N)[C@@H](C)O)C(=O)NCC(=O)NCC(=O)N[C@@H](Cc3ccccc3)C(=O)N[C@@H](CC(N)=O)C(=O)N[C@@H](C)C(=O)N[C@@H](CCCNC(=N)N)C(=O)N[C@H]3CSSC[C@H](NC1=O)C(=O)N[C@@H](CCCCN)C(=O)NCC(=O)N[C@@H](Cc1c[nH]c4ccccc14)C(=O)N[C@@H](CCCNC(=N)N)C(=O)N[C@@H]([C@@H](C)O)C(=O)N[C@@H](CCCCN)C(=O)N[C@@H](CCCNC(=N)N)C(=O)N[C@H](C(=O)N[C@@H](CC(C)C)C(=O)N[C@@H](CC(N)=O)C(=O)N1CCC[C@H]1C(=O)O)CSSC[C@H](NC(=O)[C@H](CCCCN)NC(=O)[C@H](Cc1c[nH]cn1)NC(=O)[C@H](CC(C)C)NC(=O)[C@@H]1CCCN1C3=O)C(=O)N2` [MrVIII] (H-TEESACGGFNARCPLHKCCPQYICKGWRTKRCLNP-OH; disulfide 6-19, 13-24, 18-32; N-terminus and C-terminus assumed), in assay [1], the “inhibition of Kv1.1/Y256A current” value was −9.5 ± 4.4%. The “inhibition of Kv1.5/Y368A current” value in assay [2] amounted to 19.1 ± 6.2%. Further, the “inhibition of Kv1.7/Y253A current” value in assay [3] was −9.4 ± 13.6%. In addition, the IC50 in assay [4] stood at 7.7 ± 5.3 nM. Moreover, the “inhibition of Kv1.4/Y416A current” value in assay [5] stood at 63.5 ± 18.4%.
